Series [1] is described as follows: Solubilities in light mineral oil and pH 7.4 isotonic phosphate buffer. The settings on record: thermodynamic from solid, 32° C., 48 hours equilibration. The class given is physicochemical. As to the method:
The solubilities of naltrexone and its esters were obtained by equilibrating large excesses of each substance with the respective vehicle, light mineral oil, or pH 7.4 isotonic phosphate buffer at 32° C. To hasten the attainment of equilibrium, each slurry was continuously shaken in a sealed container in a shaking incubation oven. Samples were taken, filtered (mineral oil:Millex FG-13, Millipore and buffer:glass microfiber, Gelman) above 32° C., measured with respect to volume, and diluted with the appropriate amount of acetonitrile. The diluted samples were analyzed by HPLC. The initial forty percent of each filtrate was discarded to eliminate the possibility that adsorption of drug on the filter and/or the filtering apparatus might influence the solubility determination. The sampling procedure was repeated at least once for each sample. […] Therefore, the equilibration times for all the studies were 48 hours.

Series [2] is described as follows: Octanol/water partition coefficients. The following applies: octanol/pH 7.4 isotonic phosphate buffer, room temperature; read-out: Experimental log P. The class given is physicochemical. As to the method: The octanol/water partition coefficients were determined using pH 7.4 isotonic phosphate buffer as the aqueous phase. All steps were carried out at room temperature. An appropriate amount of drug was weighed into a vial and dissolved in a known amount of octanol. An equivalent amount of buffer was then added to the vial and the phases shaken for 24 hours. The vials were left undisturbed for at least one hour after shaking. An exact volume was taken from the aqueous phase, diluted with acetonitrile, and then analyzed by HPLC. The final pH of the aqueous phase at the end of the shaking period was 7.95. Similarly, an exact volume was taken from the octanol phase, diluted with acetonitrile, and then analyzed by HPLC. Partition coefficients were calculated by determining the phase concentration ratios.

In brackets after ≈: the same amount, converted by molar mass. Like-named read-outs stand apart in the source and are kept apart here.

What is called solubility is the dissolved amount per volume that the medium holds. As for `O=C1CC[C@@]2(O)[C@H]3Cc4ccc(O)c5c4[C@@]2(CCN3CC2CC2)[C@H]1O5` [NTX, Naltrexone], the solubility at 48 h in series [1] (aqueous buffer, pH 7.4 isotonic phosphate buffer, read-out: Phosphate Buffer Solubility pH 7.4 32° C.) amounted to 15.2 mM (≈ 5190 µg/mL); in series [1] (oil or lipid, light mineral oil, read-out: Light Mineral Oil Solubility 32° C.), 0.258 mM (≈ 88.1 µg/mL). The logP at 24 h in series [2] was found to be 0.67.

The values above are taken from patent US6569449B1, “Transdermal delivery of opioid antagonist prodrugs” (University of Kentucky Research Foundation, priority 2000, dated 2003).
